Laboratory results taken from patent US20080132536A1, “PYRAZOLO [3,4-B] PYRIDINE COMPOUNDS, AND THEIR USE AS PDE4 INHIBITORS” (Glaxo Group Limited, priority 2003, published 2008).

Columns and labels:
[1] = Description: Micronisation usually involves subjecting the compound/salt to collisional and/or abrasional forces in a fast-flowing circular or spiral/vortex-shaped airstream often including a cyclone component.
In particle size measurements, D90, D50 and D10 respectively mean that 90%, 50% and 10% of the material is less than the micron size specified. D50 is the median particle size. DV90, DV50 and […] respectively mean that 90%, 50% and 10% by volume of the material is less than the micron size specified. DM90, DM50 and DM10 respectively mean that 90%, 50% and 10% by weight of the material is less than the micron size specified.
Laser diffraction measurement of particle size can use a dry method (wherein a suspension of the compound/salt in an airflow crosses the laser beam) or a wet method [wherein a suspension of the compound/salt in a liquid dispersing medium, such as isooctane or (e.g. if compound is soluble in isooctane) 0.1% Tween 80 in water, crosses the laser beam]. With laser diffraction, particle size is preferably calculated using the Fraunhofer calculation; and/or preferably a Malvern Mastersizer or Sympatec apparatus is used for measurement.
• Purpose: To micronise Example 73, 75, 98, 283, 304, 306, 307, 308, 309, 310, 311, 312, 313, 314 or 314A or 333 (described hereinafter), usually in an amount of approximately 600-1000 mg thereof, using a Jetpharma MC 1 micronizer. • The parent (unmicronised) and micronised materials are analyzed for particle size by laser diffraction and crystallinity by PXRD.
The micronizer is assembled. The narrow head of the venturi inlet is positioned below and slightly forward of the material inlet port and is measured with a micro-caliper to make sure that it is inserted correctly. The ring (R) and venturi (V) pressures are adjusted according to the values specified in the experimental design (refer to experimental section below) by adjusting the valves on the pressure gauges on the micronizer. The setup is checked for leakage by observing if there is any fluctuation in the reading of the pressure gauges.
Balance performance is checked with calibration weights. Specified amount of the parent material (see e.g. section on experimental run Procedure 1 for Example 307) is fed into the input container of the micronizer using a spatula. The input container plus material is weighed. The equipment pressure is monitored during the micronization process.
Upon completion of the micronising run, the nitrogen supply is shut off and the micronised material is allowed to settle into the micronizer container. The micronised powder in the micronizer container (collection vessel) and the cyclone (above the recovery vessel) are collected together into a pre-weighed and labelled collection vial. The weight of the micronised material is recorded. The input container is re-weighed in order to calculate the amount of input material by difference. The micronizer is disassembled and residual PDE4 compound on the micronizer inner surface is rinsed with 70/30 isopropyl alcohol/water and collected into a flask. The micronizer is then thoroughly cleaned in a Lancer washing machine and dried before subsequent runs are performed.

conscious ferret = test: In Vivo Assay 4: therapeutic index of orally-administered PDE4 inhibitors in the conscious ferret (LPS-induced pulmonary neutrophilia and emesis); design: species or system ferret (Mustela Pulorius Furo); settings: p.o.
Method: PDE4 inhibitors are prepared for oral (p.o.) administration by dissolving in a fixed volume (ca. 1 ml) of acetone and then adding cremophor to ca. 20% of the final volume. Acetone is evaporated by directing a flow of nitrogen gas onto the solution. Once the acetone is removed, the solution is made up to final volume with distilled water. LPS is dissolved in phosphate buffered saline.
Male ferrets (Mustela Pulorius Furo, weighing 1-2 kg) are transported and allowed to acclimatise for not less than 7 days. The diet comprises SDS diet C pelleted food given ad lib with Whiskers™ cat food given 3 times per week. The animals are supplied with pasteurised animal grade drinking water changed daily.
PDE4 inhibitors are administered orally (p.o.), using a dose volume of ca. 1 ml/kg. […] The animals are constantly observed and any emetic episodes (retching and vomiting) or behavioural changes are recorded. […]
About thirty minutes after oral dosing with compound or vehicle control, the ferrets are placed into sealed perspex containers and exposed to an aerosol of LPS (ca. 30 μg/ml=ca. 30 ug/ml) for ca. 10 minutes. […] All emetic episodes and behavioural changes are recorded.
About six hours after LPS exposure the animals are killed by overdose of sodium pentobarbitone administered intraperitoneally. […] From this, the total number of neutrophils in the BAL sample is determined. […]

[2] = micronised, V = 5 to 7 bar, R = 3 to 4 bar

| SMILES | Particle Size Data D10 (micronised material) [1, 2] | Particle Size Data D50 (micronised material) [1, 2] | Particle Size Data D90 (micronised material) [1, 2] | Particle Size Data D10 (unmicronised material) ([1]; unmicronised) | Particle Size Data D50 (unmicronised material) ([1]; unmicronised) | Particle Size Data D90 (unmicronised material) ([1]; unmicronised) | D20 for emesis (dose giving 20% incidence of emesis) (conscious ferret) | D50 for ferret neutrophilia (dose giving 50% inhibition of LPS-induced pulmonary neutrophilia) (conscious ferret) |
| --- | --- | --- | --- | --- | --- | --- | --- | --- |
| CCC(NC(=O)c1cnc2c(cnn2CC)c1NC1CCOCC1)c1ccc(C)cc1C.Cl (single isomer, unassigned; enantiomer 2) [Example 307, N-[1-(2,4-dimethylphenyl)propyl]-1-ethyl-4-(tetrahydro-2H-pyran-4-ylamino)-1H-pyrazolo[3,4-b]pyridine-5-carboxamide (Enantiomer 2) hydrochloride] | D10 = 0.84 microns | D50 = 1.56 microns | D90 = 2.74 microns | D10 = 2.48 microns | D50 = 8.98 microns | D90 = 24.14 microns |  |  |
| O=C(Nc1c(Cl)cncc1Cl)c1ccc(OC(F)F)c(OCC2CC2)c1 [roflumilast] |  |  |  |  |  |  | about 0.46 mg/kg | about 0.42 mg/kg |
